Reference: patent US8084431B2, “Method for inhibiting activation of macrophages, inhibiting formation of osteoclasts, inhibiting function of osteoclasts, and/or activating osteoblasts” (China Medical University, priority 2008, dated 2011)
Where two headings read alike, the source gives them in different places.

Experiments:
[1] = tested on: macrophages in the peritoneal cavity of ICR mice; assay: NO release of LPS-induced peritoneal macrophages (Griess reagent); assay type: cell-based; conditions: LPS 1 μg/ml, 24 hours
Experimental: By means of peritoneal cavity injection, ICR mice (BioLASCO, Co., Ltd., Taiwan) were administrated with 5 wt % of thioglycollate (Becton Dickinson, Franklin Lakes, N.J.). […] Then, kinsenoside (10, 25, 50 μM) was added into the culture plates, and the macrophages were incubated for 30 minutes. Lipopolysaccharides (1 μg/ml, Sigma) were added into the plates to induce the inflammatory reaction of macrophages. 24 hours later, the supernatant was collected, and the content of nitric oxide was determined with a Griess reagent (Sigma).

macrophages RAW 264.7 [2] = assay: NO release of LPS-induced macrophages RAW 264.7 (Griess reagent); assay type: cell-based; conditions: 24 hours
Experimental: 24 hours later, the supernatant was collected, and the content of nitric oxide was determined with a Griess reagent (Sigma). After macrophages RAW 264.7 were scratched off the culture plates, proteins were extracted, and then the expression of nitric oxide synthase (iNOs), p65, and p50 (nuclear factor kappa B or NF-κB, transcription factor) was analyzed with the western blot method.

myelocytes of rats = assay: Formation of osteoclasts from rat myelocytes (RANKL + M-CSF, TRAP stain); assay type: cell-based, Wistar rats; conditions: for inhibition at 5 µM / inhibition at 25 µM / inhibition at 50 µM / inhibition at 100 µM: Rattus norvegicus, Osteoclast, 216 h, 9 days
Experimental: Myelocytes were first prepared. Male Wistar rats with the body weight of 250 g to 300 g were used to prepare myelocytes. Under the condition of anaesthesia, the femurs of the rats were taken, and myelocytes were washed out with a phosphate buffer solution. […] After incubation for 9 days, monocytes in the marrow differentiated into osteoclasts. The osteoclasts were stained with a TRAP (tartrate-resistant acid phosphatase) stain reagent (Sigma, Louis, Mo., USA), and the number of the osteoclasts was calculated. Besides the same RANKL and M-CSF as the control group, various concentrations (0, 5, 25, 50, and 100 μM) of kinsenoside or 10 nM of estradiol (Wako, Japan) were added into culture plates, respectively. Then, rat myelocytes were incubated for 9 days, and the situation that the myelocytes differentiated into osteoclasts was observed. The percentage of the inhibition effect of kinsenoside and estradiol on the formation of osteoclasts was calculated with the following formula, and the result is shown in Table 9. Inhibition percentage (%)=(the number of osteoclasts of the control group−the number of osteoclasts of the experimental group)/the number of osteoclasts of the control group×100% In addition to the aforesaid RANKL, kinsenoside, and/or estradiol, the inhibitor of estradiol, Fulvestrant (Sigma, Louis, Mo., USA) (1 nM), was also added into culture plates. Then, rat myelocytes were incubated for 9 days, and the situation that the myelocytes differentiated into osteoclasts was observed. The percentage of the inhibition effect of kinsenoside on the formation of osteoclasts was calculated, and the result is shown in Table 9.

macrophages RAW 264.7 [3] = assay: Formation of osteoclasts from macrophages RAW 264.7 (RANKL, TRAP stain); assay type: cell-based; conditions: Mus musculus, RAW264.7, 120 h, RANKL 50 ng/ml, 5 days, read-out: inhibition percentage
Experimental: If macrophages RAW 264.7 are incubated in culture plates containing 50 ng/ml of differentiation inducer, RANKL, they usually differentiate into osteoclasts after 5 days. In Experiment H, various concentrations (0, 10, and 50 μM) of kinsenoside or 10 nM of estradiol were added into culture plates containing macrophages RAW 264.7, respectively, and the macrophages RAW 264.7 were incubated for 5 days. […] The number of osteoclasts was counted, and the inhibition percentage of the formation of osteoclasts was calculated with the following formula, and the result is shown in Table 11. Inhibition percentage=(the number of osteoclasts in the control group−the number of osteoclasts in the experimental group)/the number of osteoclasts in the control group×100%

[4] = tested on: MMP-9 (metalloproteinases 9); assay: RT-PCR of MMP-9 mRNA in RANKL-treated macrophages RAW 264.7; assay type: cell-based; conditions: kinsenoside 50 μM, RANKL 50 ng/ml, 24, 48, 72 hours, FIG. 8A and 8B
Experimental: As osteoclasts are activated, they RELEASE MMP-9 (metalloproteinases 9) to erode collagen in bones. Using RT-PCR to analyze the expression of mRNA of MMP-9, one can see if kinsenoside inhibits the bone resorption activity of osteoclasts.
As macrophages RAW 264.7 were incubated in culture plates containing 50 ng/ml of RANKL, 50 μM of kinsenoside was added thereto. After the macrophages RAW 264.7 were incubated for 24, 48, and 72 hours, mRNAs were extracted to analyze the expression of MMP-9 with RT-PCR. […] Thus, kinsenoside can inhibit the bone resorption of osteoclasts.

MC3T3-E1 cells [5] = assay: Survival rate of osteoblast precursor cells MC3T3-E1 (MTS); assay type: cell-based; conditions: 3 days; for survival rate Experimental Group VI: with Vitamin C and β-glycerophosphatase; for survival rate Experimental Group V: without differentiation inducers
Experimental: MC3T3-E1 cells (American Type Culture Collection, Manassas, Va., USA) are the precursor cells of osteoblasts. A suitable differentiation inducer can be added into culture plates containing MC3T3-E1 cells to observe the later stage of the differentiation process of osteoblasts.
Besides various concentrations of kinsenoside as the above experiment, […] MC3T3-E1 cells, and the MC3T3-E1 cells were incubated for 3 days.

MC3T3-E1 cells [6] = assay: Alkaline phosphatase activity of MC3T3-E1 cells; assay type: cell-based
Experimental: ALP (alkaline phosphatase) is a molecular indicator or molecular marker for the early stage of the activation of the precursor cells of osteoblasts, and according to the activity of ALP, the activation situation of the precursor cells of osteoblasts can observed. […] The MC3T3-E1 cells were incubated for 3, 5, and 10 days respectively, and then proteins in the cells were extracted. A p-nitrophenyl phosphate liquid substrate system reagent (Sigma) was used to determine the activity of ALP, and the result is shown in Table 13.

macrophages RAW 264.7 [7] = conditions: mouse, 3 days
Experimental: After 3 days, the survival rate of the macrophages RAW 264.7 was measured with MTS (3-(4,5-di-methylthiazol-2-yl)-5-(3-carboxymethoxyphenyl)-2-(4-sulfophenyl)-2H-tetrazolium) (Promega, Madison, Wis., USA), and the result is shown in Table 10.
The mechanism of MTS is that a live cell has the activity of dehydrogenase, so MTS can be reduced to become a red purple soluble product, and the product has the highest absorbance at the wavelength of 490 nm. Therefore, the survival rate of cells can be determined according to the absorbance, and the survival rate of cells can be calculated with the following formula: Survival rate=the absorbance of the experimental group/the absorbance of the control group×100%

[8] = with Fulvestrant 1 nM, read-out: inhibition percentage Experimental Group II
[9] = without Fulvestrant, read-out: inhibition percentage Experimental Group I

`O=C1C[C@@H](OC2OC(CO)C(O)C(O)C2O)CO1` (stereo partly drawn) [kinsenoside, 3-(R)-3-β-D-glucopyranosyloxy-butanolide] was tested, and the NO concentration ([1]; kinsenoside 10 μM) was 26.7 ± 3.2 µM, the NO concentration ([1]; kinsenoside 25 μM) was 20.2 ± 2.1 µM and the NO concentration ([1]; kinsenoside 50 μM) was 16.2 ± 1.0 µM. The “the concentration of NO” value (macrophages RAW 264.7 [2]; kinsenoside 10 μM) was 15.5 ± 3.7 µM, the “the concentration of NO” value (macrophages RAW 264.7 [2]; kinsenoside 50 μM) was 12.0 ± 3.1 µM and the “the concentration of NO” value (macrophages RAW 264.7 [2]; kinsenoside 100 μM) was 8.4 ± 1.7 µM. The “effect of Fulvestrant on the inhibition of osteoclast formation” value (myelocytes of rats; Fulvestrant 1 nM, summary of Table 9) was “no inhibition effect”, the inhibition at 5 µM (myelocytes of rats; [8]) was 12 ± 7.5% and the inhibition at 5 µM (myelocytes of rats; [9]) was 15.3 ± 7.2%. It also gave an inhibition at 25 µM (myelocytes of rats; [8]) of 16.3 ± 6.7%, an inhibition at 25 µM (myelocytes of rats; [9]) of 25 ± 2% and an inhibition at 50 µM (myelocytes of rats; [8]) of 65.7 ± 3.8%. For the same molecule, the inhibition at 50 µM (myelocytes of rats; [9]) was 50.3 ± 4.2%, the inhibition at 100 µM (myelocytes of rats; [8]) was 76 ± 3.6% and the inhibition at 100 µM (myelocytes of rats; [9]) was 78.1 ± 2.8%. The inhibition at 10 µM (macrophages RAW 264.7 [3]; 10 μM) was 19 ± 9%, the inhibition at 25 µM (macrophages RAW 264.7 [3]; 25 μM) was 59 ± 8% and the inhibition at 50 µM (macrophages RAW 264.7 [3]; 50 μM) was 71 ± 3%. For the same molecule, the “expression of mRNA of MMP-9” value [4] was “inhibits the expression of mRNA of MMP-9”, the “survival rate Experimental Group VI” value (MC3T3-E1 cells [5]; 10 nM) was 98.7 ± 7.8% and the “survival rate Experimental Group V” value (MC3T3-E1 cells [5]; 10 nM) was 91.5 ± 3.0 %. The “survival rate Experimental Group VI” value (MC3T3-E1 cells [5]; 100 nM) was 95.3 ± 3.3%, the “survival rate Experimental Group V” value (MC3T3-E1 cells [5]; 100 nM) was 90.8 ± 2.9 % and the “survival rate Experimental Group VI” value (MC3T3-E1 cells [5]; 1000 nM) was 95.0 ± 4.5%. The “survival rate Experimental Group V” value (MC3T3-E1 cells [5]; 1000 nM) was 89.5 ± 6.0 %, the ALP activity (MC3T3-E1 cells [6]; 10 nM, 3 days) was 112 ± 11% and the ALP activity (MC3T3-E1 cells [6]; 10 nM, 5 days) was 120 ± 18%. For the same molecule, the ALP activity (MC3T3-E1 cells [6]; 10 nM, 10 days) was 125 ± 6%, the ALP activity (MC3T3-E1 cells [6]; 100 nM, 3 days) was 124 ± 17% and the ALP activity (MC3T3-E1 cells [6]; 100 nM, 5 days) was 126 ± 17%. The ALP activity (MC3T3-E1 cells [6]; 100 nM, 10 days) was 137 ± 16%, the ALP activity (MC3T3-E1 cells [6]; 1000 nM, 3 days) was 130 ± 21% and the ALP activity (MC3T3-E1 cells [6]; 1000 nM, 5 days) was 132 ± 16 %. The ALP activity (MC3T3-E1 cells [6]; 1000 nM, 10 days) was 150 ± 23 %, the “survival rate Experimental Group III” value (macrophages RAW 264.7 [7]; 10 μM) was 117.5 ± 8.0% and the “survival rate Experimental Group IV” value (macrophages RAW 264.7 [7]; 10 μM) was 100.3 ± 4.0%. The “survival rate Experimental Group III” value (macrophages RAW 264.7 [7]; 25 μM) was 139.9 ± 4.9%, the “survival rate Experimental Group IV” value (macrophages RAW 264.7 [7]; 25 μM) was 105.0 ± 2.4% and the “survival rate Experimental Group III” value (macrophages RAW 264.7 [7]; 50 μM) was 136.9 ± 4.8%. The “survival rate Experimental Group IV” value (macrophages RAW 264.7 [7]; 50 μM) was 101.0 ± 0.3%.
